Assays:
[1] = system: peripheral leukocytes and lymphocytes; conditions: conventional cytostatics and immunosuppressive agents; cited from earlier work
[2] = system: Electro-convulsion; experiment: Maximal electroconvulsion test; type: in vivo; conditions: Mus musculus, po; i.g., mice
[3] = Water solubility; type: physicochemical; conditions: dihydrochloride
Excerpt: Using a solution of HCl-gas in ethanol the compound can be converted to dihydrochloride, which is 4% water soluble.

In the case of `Cn1cnc([N+](=O)[O-])c1Sc1ncnc2nc[nH]c12` [Azathioprine], the “reattainment of normal hematological findings after discontinuation” value [1] is given as “No comparable short-term extensive reattainment of normal hematological findings”.
`O=C1NC(=O)C(c2ccccc2)(c2ccccc2)N1` [Diphenylhydantoin, reference compound] gave an ED50 [2] of 22.5 mg/kg.
In the case of `O=P1(N(CCCl)CCCl)NCCCO1` (centres unmarked) [cyclophosphamide], the “reattainment of normal hematological findings after discontinuation” value [1] is given as “No comparable short-term extensive reattainment of normal hematological findings”.
`Cl.Cl.Nc1ccc(C(=O)Nc2ccccc2N)cc1` [dihydrochloride, 4-Amino-N-(2'aminophenyl)-benzamide-dihydrochloride] gave a solubility [3] of 40 mg/mL.
In the case of `CN(Cc1cnc2nc(N)nc(N)c2n1)c1ccc(C(=O)N[C@@H](CCC(=O)O)C(=O)O)cc1` [methotrexate], the “reattainment of normal hematological findings after discontinuation” value [1] is listed as “No comparable short-term extensive reattainment of normal hematological findings”.
